Assay results as given in patent publication US11191736B2, “Pharmaceutical formulations containing cannabidiol and nicotine for treating smokeless tobacco addiction” (CV Sciences, Inc., priority 2016, dated 2021).

How the values were obtained:
MAO-A enzyme = target: T1, MAO-A enzyme (Homo sapiens, UniProt P21397); test: MAO-Glo luminescent assay, MAO-A inhibition; assay type: biochemical; details: FIG. 1
T1 sequence (P21397 1-527): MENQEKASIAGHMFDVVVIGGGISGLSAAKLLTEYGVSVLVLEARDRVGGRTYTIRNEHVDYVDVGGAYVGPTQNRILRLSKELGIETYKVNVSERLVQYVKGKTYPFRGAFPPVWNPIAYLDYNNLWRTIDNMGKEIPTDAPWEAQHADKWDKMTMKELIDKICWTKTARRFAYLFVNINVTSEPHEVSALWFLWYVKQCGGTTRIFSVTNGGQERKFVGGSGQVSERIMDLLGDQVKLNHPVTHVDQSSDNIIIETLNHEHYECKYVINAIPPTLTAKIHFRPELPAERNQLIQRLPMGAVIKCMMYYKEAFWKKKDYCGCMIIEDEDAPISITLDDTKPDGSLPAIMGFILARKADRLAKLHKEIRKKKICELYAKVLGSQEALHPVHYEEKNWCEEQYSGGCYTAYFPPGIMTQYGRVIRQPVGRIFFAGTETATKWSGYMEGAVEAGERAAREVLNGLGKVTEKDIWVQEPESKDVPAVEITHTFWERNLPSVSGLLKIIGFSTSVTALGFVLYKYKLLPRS
From the text: (§1) This example describes experiments for determining monoamine oxidase (MAO) inhibition activity for cannabidiol. MAOs are enzymes located on the outer membrane of mitochondria and are involved in the catabolism of monoamine neurotransmitters. There are two well-characterized isoenzymes: MAO-A, which predominantly catabolizes serotonin and norepinephrine, and MAO-B, which preferentially catabolizes benzylamine and phenylethylamine. Dopamine and tyramine are metabolized by both isoforms.
(§2) To detect the activity of MAO, a luminescent method (MAO-Glo Assay kit, from Promega, Cat #V1401) was used. In this method, a MAO substrate (a derivative of beetle luciferin provided in the kit) is mixed with the compound to be tested (in this case, myosmine and control compounds). Then, the MAO-A or MAO-B enzyme is added to the mixture and incubated with the reaction for 1 hour at room temperature. The MAO enzymes, if not inhibited by the test compound, will convert the substrate into methyl ester luciferin. Finally, a luciferin detection reagent (provided by the kit) is added (20 minutes at room temperature) to stop the MAO reaction and convert methyl ester luciferin into D-luciferin. […] The luminescent signal is measured and recorded using a luminometer.

MAO-B enzyme = target: T2, MAO-B enzyme (Homo sapiens, UniProt P27338); test: MAO-Glo luminescent assay, MAO-B inhibition; assay type: biochemical; details: FIG. 2
T2 sequence (P27338 1-520): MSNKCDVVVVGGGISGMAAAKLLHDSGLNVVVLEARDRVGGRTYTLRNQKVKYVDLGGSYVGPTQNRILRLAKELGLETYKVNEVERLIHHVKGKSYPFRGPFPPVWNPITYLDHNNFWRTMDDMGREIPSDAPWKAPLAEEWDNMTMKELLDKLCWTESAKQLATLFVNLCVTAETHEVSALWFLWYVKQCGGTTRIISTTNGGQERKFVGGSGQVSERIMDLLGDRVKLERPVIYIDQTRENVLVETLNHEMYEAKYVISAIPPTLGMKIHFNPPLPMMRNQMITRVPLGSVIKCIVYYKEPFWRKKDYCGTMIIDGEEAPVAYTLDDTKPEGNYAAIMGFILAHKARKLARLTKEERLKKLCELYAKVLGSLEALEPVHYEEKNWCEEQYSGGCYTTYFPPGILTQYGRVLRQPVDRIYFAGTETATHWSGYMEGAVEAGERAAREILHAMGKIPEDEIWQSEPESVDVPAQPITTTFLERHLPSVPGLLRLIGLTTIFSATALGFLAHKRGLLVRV
From the text: as §1, §2

monoamine oxidase (MAO) = details: Current Drug Safety, 2011, Vol. 6, No. 4; cited from earlier work
[1] = at a concentration of 7.5 mM (7,500 micromolar)

Compound: C=C(C)[C@@H]1CCC(C)=C[C@H]1c1c(O)cc(CCCCC)cc1O [CBD, 2-[(1R,6R)-3-methyl-6-(1-methylethenyl)-2-cyclohexen-1-yl]-5-pentyl-1,3-benzenediol]
- MAO-A inhibition, result in words (MAO-A enzyme; compared with nornicotine): potent inhibitor of MAO-A, in fact to an even greater extent than nornicotine
- inhibition at 7500 µM (MAO-A enzyme; [1]): ~50%
- MAO-B inhibition, result in words (MAO-B enzyme; compared with MAO-A activity): also inhibits MAO-B activity, although to a lesser extent than MAO-A activity
- inhibition at 7500 µM (MAO-B enzyme; [1]): ~30%
- inhibiting monoamine oxidase (MAO) activity, prior report (monoamine oxidase (MAO)): ineffective
